The source made the active and inactive calls. No cut-off for these calls is given here.
How the values were obtained:
[1] = (§1) Contractile activity in rabbit celiac artery; format: functional, Oryctolagus cuniculus
Oryctolagus cuniculus [2] = organism: Oryctolagus cuniculus; assay: as §1; format: functional
[3] = (§2) Contractile activity in rabbit mesenteric artery; format: functional, Oryctolagus cuniculus
Oryctolagus cuniculus [4] = organism: Oryctolagus cuniculus; assay: as §2; format: functional
[5] = Contractile activity in rabbit celiac arteries relative to control; format: functional; conditions: Oryctolagus cuniculus, Celiac artery
[6] = Contractile activity in rabbit mesenteric arteries relative to control; format: functional; conditions: Oryctolagus cuniculus, Mesenteric artery
Oryctolagus cuniculus [7] = organism: Oryctolagus cuniculus; assay: Vasorelaxant activity against PGF2-alpha-induced contraction in endothelium-intact rabbit aortic rings up to 40 nmol; format: functional, tissue-based; conditions: Aorta
Aorta [8] = assay: Contractile activity in endothelium-intact rabbit aortic rings at >40 nmol to 400 nmol; format: functional, tissue-based; conditions: Oryctolagus cuniculus
Oryctolagus cuniculus [9] = organism: Oryctolagus cuniculus; assay: Vasorelaxant activity against PGF2-alpha-induced contraction in endothelium-denuded rabbit aortic rings at 0.04 to 400 nmol; format: functional, tissue-based; conditions: Aorta
Oryctolagus cuniculus [10] = organism: Oryctolagus cuniculus; assay: Vasorelaxant activity against PGF2-alpha-induced contraction in endothelium-intact rabbit aortic rings in presence of ketanserin tartrate; format: functional, tissue-based; conditions: Aorta
Aorta [11] = assay: Contractile activity in endothelium-intact rabbit aortic rings in presence of ketanserin tartrate; format: functional, tissue-based; conditions: Oryctolagus cuniculus
Oryctolagus cuniculus [12] = organism: Oryctolagus cuniculus; assay: Vasorelaxant activity against PGF2-alpha-induced contraction in endothelium-intact rabbit aortic rings in presence of indomethacin; format: functional, tissue-based; conditions: Aorta
Oryctolagus cuniculus [13] = organism: Oryctolagus cuniculus; assay: Vasorelaxant activity against PGF2-alpha-induced contraction in endothelium-intact rabbit aortic rings in presence of prazosin; format: functional, tissue-based; conditions: Aorta
Oryctolagus cuniculus [14] = organism: Oryctolagus cuniculus; assay: Vasorelaxant activity against PGF2-alpha-induced contraction in endothelium-intact rabbit aortic rings in presence of phentolamine; format: functional, tissue-based; conditions: Aorta
Oryctolagus cuniculus [15] = organism: Oryctolagus cuniculus; assay: Vasorelaxant activity against PGF2-alpha-induced contraction in endothelium-intact rabbit aortic rings in presence of propranolol hydrochloride; format: functional, tissue-based; conditions: Aorta
Oryctolagus cuniculus [16] = organism: Oryctolagus cuniculus; assay: Vasorelaxant activity against PGF2-alpha-induced contraction in endothelium-intact rabbit aortic rings in presence of atropine sulfate; format: functional, tissue-based; conditions: Aorta

Row | Structure (SMILES) | ED50 [1] [nmol] | Activity (Oryctolagus cuniculus [2]) | ED50 [3] [nmol] | Activity (Oryctolagus cuniculus [4]) | Emax [5] [%] | Emax [6] [%] | Activity (Oryctolagus cuniculus [7]) | Activity (Aorta [8]) | Activity (Oryctolagus cuniculus [9]) | Activity (Oryctolagus cuniculus [10]) | Activity (Aorta [11]) | Activity (Oryctolagus cuniculus [12]) | Activity (Oryctolagus cuniculus [13]) | Activity (Oryctolagus cuniculus [14]) | Activity (Oryctolagus cuniculus [15]) | Activity (Oryctolagus cuniculus [16])
1 | NC1CCCCNCCc2c1[nH]c1ccccc21 (stereo not given) [NAZLININ] | 115 | Dose-dependent effect | 70 | Dose-dependent effect | 71 | 83 | Active | Active | inactive | Active | inactive | Active | Active | Active | Active | Active
2 | NCCc1c[nH]c2ccc(O)cc12 [SEROTONIN] | 0.156 | Dose-dependent effect | 0.126 | Dose-dependent effect | 110 | 108 | Active | Active | inactive | – | – | – | – | – | – | –

Source: ChEMBL document CHEMBL1158966, “Chemical characterization and pharmacological activity of nazlinin, a novel indole alkaloid from Nitraria schoberi” (1991)
